# Measurements as given in patent US20190359609A1, “BICYCLIC OGA INHIBITOR COMPOUNDS” (Janssen Pharmaceutica NV, priority 2016, published 2019).
# Target: T1, recombinant human Meningioma Expressed Antigen 5 (MGEA5), also referred to as O-GlcNAcase (OGA) (Homo sapiens, UniProt O60502)
# T1 construct: Full length OGA enzyme was purchased at OriGene (cat # TP322411); purchased OriGene TP322411
# T1 sequence (O60502 1-916): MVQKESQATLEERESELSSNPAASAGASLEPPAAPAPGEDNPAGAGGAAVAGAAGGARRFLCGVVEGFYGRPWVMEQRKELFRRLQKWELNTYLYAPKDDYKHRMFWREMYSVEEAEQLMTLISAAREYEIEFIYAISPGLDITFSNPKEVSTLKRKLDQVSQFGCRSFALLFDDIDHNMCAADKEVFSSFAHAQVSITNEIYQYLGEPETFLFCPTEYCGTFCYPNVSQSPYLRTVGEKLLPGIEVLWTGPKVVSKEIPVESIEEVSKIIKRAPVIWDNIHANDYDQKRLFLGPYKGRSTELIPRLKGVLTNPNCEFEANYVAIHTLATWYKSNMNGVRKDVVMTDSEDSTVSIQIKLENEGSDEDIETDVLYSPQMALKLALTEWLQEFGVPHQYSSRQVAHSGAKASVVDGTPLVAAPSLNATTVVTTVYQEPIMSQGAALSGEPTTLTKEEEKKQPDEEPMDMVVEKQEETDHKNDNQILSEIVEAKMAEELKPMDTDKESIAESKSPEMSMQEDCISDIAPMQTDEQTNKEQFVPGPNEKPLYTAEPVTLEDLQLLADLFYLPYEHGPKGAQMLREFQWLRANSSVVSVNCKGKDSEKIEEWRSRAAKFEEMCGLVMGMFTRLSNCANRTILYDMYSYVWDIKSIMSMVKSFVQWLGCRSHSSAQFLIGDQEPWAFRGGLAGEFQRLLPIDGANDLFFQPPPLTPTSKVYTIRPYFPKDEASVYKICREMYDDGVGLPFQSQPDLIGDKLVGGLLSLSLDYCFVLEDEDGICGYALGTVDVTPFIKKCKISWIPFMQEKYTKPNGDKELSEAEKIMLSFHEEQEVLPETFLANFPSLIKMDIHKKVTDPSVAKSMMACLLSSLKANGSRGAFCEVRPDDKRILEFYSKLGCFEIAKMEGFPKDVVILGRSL
# Experiment: OGA biochemical assay: inhibition of FM-GlcNAc hydrolysis, fluorescence (protocol A 10 nM OGA, 1 h; protocol B 2 nM OGA, 6 h)
# Conditions: Enzymatic protocol A (10 nM OGA, 1 h)
# Text: The assay is based on the inhibition of the hydrolysis of fluorescein mono-B-D-N-Acetyl-Glucosamine (FM-GlcNAc) (Mariappa et al. 2015, Biochem J 470:255) by the recombinant human Meningioma Expressed Antigen 5 (MGEA5), also referred to as 0-GlcNAcase (OGA). The hydrolysis FM-GlcNAc (Marker Gene technologies, cat # M1485) results in the formation of β-D-N-glucosamineacetate and fluorescein. The fluorescence of the latter can be measured at excitation wavelength 485 nm and emission wavelength 538 nm. An increase in enzyme activity results in an increase in fluorescence signal. Full length OGA enzyme was purchased at OriGene (cat # TP322411). The enzyme was stored in 25 mM Tris.HCl, pH 7.3, 100 mM glycine, 10% glycerol at −20° C. Thiamet G and GlcNAcStatin were tested as reference compounds (Yuzwa et al. 2008 Nature Chemical Biology 4:483; Yuzwa et al. 2012 Nature Chemical Biology 8:393). The assay was performed in 200 mM Citrate/phosphate buffer supplemented with 0.005% Tween-20. 35.6 g Na2HPO4 2 H2O (Sigma, # C0759) were dissolved in 1 L water to obtain a 200 mM solution. 19.2 g citric acid (Merck, #1.06580) was dissolved in 1 L water to obtain a 100 mM solution. pH of the sodiumphosphate solution was adjusted with the citric acid solution to 7.2. The buffer to stop the reaction consists of a 500 mM Carbonate buffer, pH 11.0. 734 mg FM-GlcNAc were dissolved in 5.48 mL DMSO to obtain a 250 mM solution and was stored at −20° C. OGA was used at a 10 nM (protocol A) or 2 nM (protocol B) concentration and FM-GlcNAc at a 100 uM final concentration. Dilutions were prepared in assay buffer.
# 50 nl of a compound dissolved in DMSO was dispensed on Black Proxiplate™ 384 Plus Assay plates (Perkin Elmer, #6008269) and 3 μl fl-OGA enzyme mix added subsequently. Plates were pre-incubated for 60 min at room temperature and then 2 μl FM-GlcNAc substrate mix added. […] Plates were briefly centrifuged for 1 min at 1000 rpm and incubate at room temperature for 1 h (10 nM OGA, protocol A) or 6 h (2 nM OGA, protocol B). To stop the reaction 5 μl STOP buffer were added and plates centrifuge again 1 min at 1000 rpm. Fluorescence was quantified in the Thermo Scientific Fluoroskan Ascent or the PerkinElmer EnVision with excitation wavelength 485 nm and emission wavelength 538 nm.
# For analysis a best-fit curve is fitted by a minimum sum of squares method. From this an IC50 value and Hill coefficient was obtained. High control (no inhibitor) and low control (saturating concentrations of standard inhibitor) were used to define the minimum and maximum values.
row,Enzymatic Emax (%),SMILES
1,99,"CC(=O)Nc1ncc(S(=O)(=O)N2CCCC(c3cc4ncccc4[nH]3)C2)s1 (single isomer, unassigned) [Compound 3]"

# Same assay, conditions: Enzymatic protocol A (10 nM OGA, 1 h); read-out: Enzymatic Emax (%)
row,Emax [%],SMILES
1,75.9,CC(=O)Nc1ncc(S(=O)(=O)N2CCCC(c3nc4ncccc4[nH]3)C2)s1 (stereo not shown) [Compound 1]
2,99.7,CC(=O)Nc1ncc(CN2CCCC(c3cc4ncccc4[nH]3)C2)s1 (stereo not shown) [Compound 5]
3,99.9,c1cnc2cc(C3CCCN(Cc4ccc5c(c4)OCO5)C3)[nH]c2c1 (stereo not shown) [Compound 38]

# Same assay, conditions: Enzymatic protocol A (10 nM OGA, 1 h); read-out: Enzymatic hOGA; pIC50 (converted)
row,IC50 [µM],SMILES
1,0.562,"CC(=O)Nc1ncc(S(=O)(=O)N2CCCC(c3cc4ncccc4[nH]3)C2)s1 (single isomer, unassigned) [Compound 3]"
2,1.86,CC(=O)Nc1ncc(S(=O)(=O)N2CCCC(c3nc4ncccc4[nH]3)C2)s1 (stereo not shown) [Compound 1]
3,0.0257,CC(=O)Nc1ncc(CN2CCCC(c3cc4ncccc4[nH]3)C2)s1 (stereo not shown) [Compound 5]
4,1.74,c1cnc2cc(C3CCCN(Cc4ccc5c(c4)OCO5)C3)[nH]c2c1 (stereo not shown) [Compound 38]

# Same assay, conditions: Enzymatic protocol B (2 nM OGA, 6 h)
row,Enzymatic Emax (%),SMILES
1,96.3,"CC(=O)Nc1ncc(CN2CCCC(c3cc4cnccc4[nH]3)C2)s1 (single isomer, unassigned) [Compound 14]"
2,73.5,"CC(c1ccc2c(c1)OCO2)N1CCCC(c2cc3ncccc3[nH]2)C1 (single isomer, unassigned) [Compound 29]"
3,75.1,"CC(c1ccc2c(c1)OCO2)N1CCCC(c2cc3ncccc3[nH]2)C1 (single isomer, unassigned) [Compound 30]"
4,89.4,"CC(c1ccc2c(c1)OCO2)N1CCCC(c2cc3ncccc3[nH]2)C1 (single isomer, unassigned) [Compound 32]"
5,87.7,"CC(c1ccc2c(c1)OCCO2)N1CCCC(c2cc3ncccc3[nH]2)C1 (single isomer, unassigned) [Compound 35]"
6,101.3,"CC(c1ccc2c(c1)OCCO2)N1CCCC(c2cc3ncccc3[nH]2)C1 (single isomer, unassigned) [Compound 36]"
7,96.0,"CC(c1ccc2c(c1)OCCO2)N1CCCC(c2cc3ncccc3[nH]2)C1 (single isomer, unassigned) [Compound 37]"
8,93.2,"Cn1c(C2CCCN(Cc3ccc4nccnc4c3)C2)cc2ncccc21 (single isomer, unassigned) [Compound 42]"
9,46.5,"Cn1c(C2CCCN(Cc3ccc4nccnc4c3)C2)cc2ncccc21 (single isomer, unassigned) [Compound 43]"
10,100,"CC(c1ccc2c(c1)OCO2)N1CCCC(c2cc3ncccc3n2C)C1 (single isomer, unassigned) [Compound 45]"
11,24.2,"CC(c1ccc2c(c1)OCO2)N1CCCC(c2cc3ncccc3n2C)C1 (single isomer, unassigned) [Compound 46]"
12,85.8,"CC(c1ccc2c(c1)OCO2)N1CCCC(c2cc3ncccc3n2C)C1 (single isomer, unassigned) [Compound 47]"
13,31.7,"CC(c1ccc2c(c1)OCO2)N1CCCC(c2cc3ncccc3n2C)C1 (single isomer, unassigned) [Compound 48]"

# Same assay, conditions: Enzymatic protocol B (2 nM OGA, 6 h); read-out: Enzymatic Emax (%)
row,Emax [%],SMILES
1,99,CC(c1ccc2c(c1)OCO2)N1CCCC(c2cc3ncccc3n2C)C1 (racemic) [Compound 44]
2,98.9,"CC(=O)Nc1ncc(CN2CCCC(c3cc4cnccc4[nH]3)C2)s1 (single isomer, unassigned) [Compound 13]"
3,93.8,"CC(c1ccc2c(c1)OCCO2)N1CCCC(c2cc3ncccc3[nH]2)C1 (single isomer, unassigned) [Compound 34]"
4,90.1,CC(=O)N(C)c1ncc(CN2CCCC(c3cc4ncccc4[nH]3)C2)s1 (stereo not shown) [Compound 10]
5,77.3,CC(=O)Nc1ncc(CN2CCOC(c3cc4ncccc4[nH]3)C2)s1 (stereo not shown) [Compound 27]
6,89.8,Cn1c(C2CCCN(Cc3ccc4nccnc4c3)C2)cc2ncccc21 (stereo not shown) [Compound 41]

# Same assay, conditions: Enzymatic protocol B (2 nM OGA, 6 h); read-out: Enzymatic hOGA; pIC50 (converted)
row,IC50 [µM],SMILES
1,0.0832,CC(c1ccc2c(c1)OCO2)N1CCCC(c2cc3ncccc3n2C)C1 (racemic) [Compound 44]
2,0.0229,"CC(=O)Nc1ncc(CN2CCCC(c3cc4cnccc4[nH]3)C2)s1 (single isomer, unassigned) [Compound 13]"
3,0.676,"CC(=O)Nc1ncc(CN2CCCC(c3cc4cnccc4[nH]3)C2)s1 (single isomer, unassigned) [Compound 14]"
4,3.72,"CC(c1ccc2c(c1)OCO2)N1CCCC(c2cc3ncccc3[nH]2)C1 (single isomer, unassigned) [Compound 29]"
5,4.07,"CC(c1ccc2c(c1)OCO2)N1CCCC(c2cc3ncccc3[nH]2)C1 (single isomer, unassigned) [Compound 30]"
6,1.78,"CC(c1ccc2c(c1)OCO2)N1CCCC(c2cc3ncccc3[nH]2)C1 (single isomer, unassigned) [Compound 32]"
7,0.708,"CC(c1ccc2c(c1)OCCO2)N1CCCC(c2cc3ncccc3[nH]2)C1 (single isomer, unassigned) [Compound 34]"
8,2.45,"CC(c1ccc2c(c1)OCCO2)N1CCCC(c2cc3ncccc3[nH]2)C1 (single isomer, unassigned) [Compound 35]"
9,0.011,"CC(c1ccc2c(c1)OCCO2)N1CCCC(c2cc3ncccc3[nH]2)C1 (single isomer, unassigned) [Compound 36]"
10,0.955,"CC(c1ccc2c(c1)OCCO2)N1CCCC(c2cc3ncccc3[nH]2)C1 (single isomer, unassigned) [Compound 37]"
11,0.776,"Cn1c(C2CCCN(Cc3ccc4nccnc4c3)C2)cc2ncccc21 (single isomer, unassigned) [Compound 42]"
12,> 10,"Cn1c(C2CCCN(Cc3ccc4nccnc4c3)C2)cc2ncccc21 (single isomer, unassigned) [Compound 43]"
13,0.0275,"CC(c1ccc2c(c1)OCO2)N1CCCC(c2cc3ncccc3n2C)C1 (single isomer, unassigned) [Compound 45]"
14,> 10,"CC(c1ccc2c(c1)OCO2)N1CCCC(c2cc3ncccc3n2C)C1 (single isomer, unassigned) [Compound 46]"
15,1.55,"CC(c1ccc2c(c1)OCO2)N1CCCC(c2cc3ncccc3n2C)C1 (single isomer, unassigned) [Compound 47]"
16,> 10,"CC(c1ccc2c(c1)OCO2)N1CCCC(c2cc3ncccc3n2C)C1 (single isomer, unassigned) [Compound 48]"
17,1.02,CC(=O)N(C)c1ncc(CN2CCCC(c3cc4ncccc4[nH]3)C2)s1 (stereo not shown) [Compound 10]
18,3.16,CC(=O)Nc1ncc(CN2CCOC(c3cc4ncccc4[nH]3)C2)s1 (stereo not shown) [Compound 27]
19,1.26,Cn1c(C2CCCN(Cc3ccc4nccnc4c3)C2)cc2ncccc21 (stereo not shown) [Compound 41]

# Same assay, conditions: comparative table; protocol not given; read-out: Emax (OGA inhibitory activity, comparison with 1,4-disubstituted piperidine comparator)
row,Emax [%],SMILES
1,99.7,CC(=O)Nc1ncc(CN2CCCC(c3cc4ncccc4[nH]3)C2)s1 (stereo not shown) [Compound 5]

# Same assay, conditions: comparative table; protocol not given; read-out: pIC50 (OGA inhibitory activity, comparison with 1,4-disubstituted piperidine comparator) (converted)
row,IC50 [µM],SMILES
1,0.0257,CC(=O)Nc1ncc(CN2CCCC(c3cc4ncccc4[nH]3)C2)s1 (stereo not shown) [Compound 5]

# Same assay, conditions: greater than the corresponding 1,4-disubstituted piperidine compound (comparator)
row,OGA inhibitory activity compared with comparator,SMILES
1,~1 order of magnitude,CC(=O)Nc1ncc(CN2CCCC(c3cc4ncccc4[nH]3)C2)s1 (stereo not shown) [Compound 5]
